Laboratory results: patent US20240308998A1, “PYRROLOPYRIDONE DERIVATIVES USEFUL IN THE TREATMENT OF CANCER” (Tay Therapeutics Limited, priority 2021, published 2024)
Counter-ions that a name gives are not always drawn.

Experiments:
BRD4 BD1 = target: T1, BRD4 BD1 (Homo sapiens, UniProt O60885); test: NanoBRET bromodomain assay, BRD4 BD1; assay type: cell-based; details: HEK293 cells transfected with NanoLuc-BRD4-BD1
T1 construct: HEK293 cells were transfected using NanoLuc-BRD4-BD1 or NanoLuc-BRD4-BD2 fusion vectors; host or cells: HEK293
Protocol: (§1) HEK293 cells were transfected using NanoLuc-BRD4-BD1 or NanoLuc-BRD4-BD2 fusion vectors and incubated at 37° C. in an atmosphere of 5% CO2 for 20-24 hours. The transfected cells were then dispensed into 96-well plates using 90 μl cell suspension per well containing 2×10^5 cells/ml in Opti-MEM and 1x final concentration of tracer. 90 μl per well of cell suspension without tracer was also dispensed into at least 3 wells as “No tracer control samples” for background correction. Serially diluted test compounds were prepared at 1000× concentration in DMSO and further diluted to 10× concentration in Opti-MEM. 10 μl per well of the serially diluted 10× test compound was added to the 96-well plates containing cells with 1x tracer. Plates were then incubated at 37° C.+5% C02 incubator for 2 hours. Immediately prior to BRET measurements, a 3x solution consisting of 1:166 dilution of Nano-Glo® Substrate plus a 1:500 dilution of Extracellular NanoLuc Inhibitor in Opti-MEM was prepared and 50 μl per well was added to the cells. Donor emission (450 nm) and acceptor emission (610 nm) were measured using PHERAstar (BMG LabTech). For data analysis, the raw BRET ratio was generated and converted to milliBRET units with background correction using the formula: [(Acceptorsample/Donorsample)−(Acceptorno tracer control/Donorno tracer control)]×1000. The mBU data was plotted as a function of compound concentration and IC50s for BRET assay were determined by nonlinear regression analysis of concentration response curves using the GraphPad Prism software.

BRD4 BD2 = target: T2, BRD4 BD2 (Homo sapiens, UniProt O60885); test: NanoBRET bromodomain assay, BRD4 BD2; assay type: cell-based; details: for Fold selectivity BRD4 BD1/BD2: IC50 BD1/IC50 BD2; for IC50: NanoBRET, HEK293 cells transfected with NanoLuc-BRD4-BD2
T2 construct: HEK293 cells were transfected using NanoLuc-BRD4-BD1 or NanoLuc-BRD4-BD2 fusion vectors; host or cells: HEK293
Protocol: as §1
Fold Selectivity Calculated (IC50 BD1/IC50 BD2).

[1] = Intrinsic clearance in rat liver microsomes; assay type: in vitro ADME; details: pH 7.4, NADPH, read-out: Rat Microsomal Stability T½
Protocol: A 50 mM stock solution (in DMSO) was prepared for the compound. From the stock solution, a working solution of 0.5 mM was prepared by diluting the compound in DMSO. This concentration of working solution was prepared considering a final concentration of 1 uM with 0.1% DMSO. The compound (1 uL of working solution) was spiked in PBS with pH 7.4 (22 uL) at a concentration of 1 uM. Subsequently, 110 uL of 10 mM NADPH was added (as a co-factor). The sample was incubated at 37° C. for 15 min. Following this, pre-warmed rat liver microsomes (27.5 uL; final protein conc. 0.5 mg/mL) were added. The samples were then incubated at 37° C. Aliquots of samples were withdrawn at 0, 5, 15, 30, 45 and 60 min. The reaction was stopped by using chilled acetonitrile containing internal standard. The samples were centrifuged and the supernatants analysed by LC-MS/MS. The percent compound remaining at each time point was calculated with respect to that of the 0 min sample. The data were then analysed to calculate half-life. Note that control samples were run without NADPH and blank samples were prepared using DMSO without the test Compound.

SMILES | IC50 (BRD4 BD1) | Fold selectivity BRD4 BD1/BD2 (BRD4 BD2) | IC50 (BRD4 BD2) | half-life at 1 uM [1]
Cc1ccccc1-c1cc2c(-c3cc(=O)n(C)cc3Oc3c(C)cccc3C)cn(C)c(=O)c2[nH]1 [Example 15, 4-(5-(2,6-dimethylphenoxy)-1-methyl-2-oxo-1,2-dihydropyridin-4-yl)-6-methyl-2-(o-tolyl)-1,6-dihydro-7H-pyrrolo[2,3-c] pyridin-7-one] | > 1000 nM | x (Fold >2 and ≤50) | 200 to 1000 nM | 0.383 h
Cc1ccc(F)c(-c2cc3c(-c4cc(=O)n(C)cc4Oc4c(C)cccc4C)cn(C)c(=O)c3[nH]2)c1 [Example 16, 4-(5-(2,6-dimethylphenoxy)-1-methyl-2-oxo-1,2-dihydropyridin-4-yl)-2-(2-fluoro-5-methylphenyl)-6-methyl-1,6-dihydro-7H-pyrrolo[2,3-c] pyridin-7-one] | > 1000 nM | xxx (Fold >200) | ≤ 50 nM | > 1 h
Cc1cccc(C)c1Oc1cn(C)c(=O)cc1-c1cn(C)c(=O)c2[nH]c(-c3cccnc3)cc12 [Example 9, 4-(5-(2,6-dimethylphenoxy)-1-methyl-2-oxo-1,2-dihydropyridin-4-yl)-6-methyl-2-(pyridin-3-yi)-1,6-dihydro-7H-pyrrolo[2,3-c] pyridin-7-one.TFA] | > 1000 nM | x (Fold >2 and ≤50) | 200 to 1000 nM | > 1 h
Cc1cccc(C)c1Oc1cn(C)c(=O)cc1-c1cn(C)c(=O)c2[nH]c(-c3ccc(C#N)cc3)cc12 [Example 24, 4-(4-(5-(2,6-dimethylphenoxy)-1-methyl-2-oxo-1,2-dihydropyridin-4-yl)-6-methyl-7-oxo-6,7-dihydro-1H-pyrrolo[2,3-c]pyridin-2-yl) benzonitrile] | > 1000 nM | x (Fold >2 and ≤50) | 200 to 1000 nM | > 1 h
Cc1ccc(F)cc1-c1cc2c(-c3cc(=O)n(C)cc3Oc3c(C)cccc3C)cn(C)c(=O)c2[nH]1 [Example 18, 4-(5-(2,6-dimethylphenoxy)-1-methyl-2-oxo-1,2-dihydropyridin-4-yl)-2-(5-fluoro-2-methylphenyl)-6-methyl-1,6-dihydro-7H-pyrrolo[2,3-c] pyridin-7-one] | > 1000 nM | xx (Fold >50 and ≤200) | 50 to 200 nM | > 1 h
Cc1cccc(C)c1Oc1cn(C)c(=O)cc1-c1cn(C)c(=O)c2[nH]c(-c3ccncc3)cc12 [Example 10, 4-(5-(2,6-dimethylphenoxy)-1-methyl-2-oxo-1,2-dihydropyridin-4-yl)-6-methyl-2-(pyridin-4-yl)-1,6-dihydro-7H-pyrrolo[2,3-c] pyridin-7-one] | > 1000 nM | xxx (Fold >200) | ≤ 50 nM | 0.733 h
Cc1cccc(C)c1Oc1cn(C)c(=O)cc1-c1cn(C)c(=O)c2[nH]c(-c3ccn(C)c3)cc12 [Example 13, 4-(5-(2,6-dimethylphenoxy)-1-methyl-2-oxo-1,2-dihydropyridin-4-yl)-6-methyl-2-(1-methyl-1H-pyrrol-3-yl)-1,6-dihydro-7H-pyrrolo[2,3-c] pyridin-7-one] | > 1000 nM | xxx (Fold >200) | ≤ 50 nM | > 1 h
Cc1cccc(C)c1Oc1cn(C)c(=O)cc1-c1cn(C)c(=O)c2[nH]c(-c3cnnn3C)cc12 [Example 33, 4-(5-(2,6-dimethylphenoxy)-1-methyl-2-oxo-1,2-dihydropyridin-4-yl)-6-methyl-2-(1-methyl-1H-1,2,3-triazol-5-yl)-1,6-dihydro-7H-pyrrolo[2,3-c] pyridin-7-one] | > 1000 nM | x (Fold >2 and ≤50) | > 1000 nM | > 1 h
Cc1cccc(C)c1Oc1cn(C)c(=O)cc1-c1cn(C)c(=O)c2[nH]c(-c3cn(C)nc3C)cc12 [Example 12, 2-(1,3-dimethyl-1H-pyrazol-4-yl)-4-(5-(2,6-dimethylphenoxy)-1-methyl-2-oxo-1,2-dihydropyridin-4-yl)-6-methyl-1,6-dihydro-7H-pyrrolo[2,3-c] pyridin-7-one] | 500 to 1000 nM | xx (Fold >50 and ≤200) | ≤ 50 nM | > 1 h
Cc1ncc(-c2cc3c(-c4cc(=O)n(C)cc4Oc4c(C)cccc4C)cn(C)c(=O)c3[nH]2)s1 [Example 31, 4-(5-(2,6-dimethylphenoxy)-1-methyl-2-oxo-1,2-dihydropyridin-4-yl)-6-methyl-2-(2-methylthiazol-5-yl)-1,6-dihydro-7H-pyrrolo[2,3-c] pyridin-7-one] | 50 to 500 nM | xx (Fold >50 and ≤200) | ≤ 50 nM | > 1 h
Cc1cccc(C)c1Oc1cn(C)c(=O)cc1-c1cn(C)c(=O)c2[nH]c(-c3ccc(C(N)=O)cc3)cc12 [Example 29, 4-(4-(5-(2,6-dimethylphenoxy)-1-methyl-2-oxo-1,2-dihydropyridin-4-yl)-6-methyl-7-oxo-6,7-dihydro-1H-pyrrolo[2,3-c]pyridin-2-yl) benzamide] | > 1000 nM | xxx (Fold >200) | ≤ 50 nM | > 1 h
Cc1cccc(C)c1Oc1cn(C)c(=O)cc1-c1cn(C)c(=O)c2[nH]c(-c3ccc(C(F)(F)F)cc3)cc12 [Example 28, 4-(5-(2,6-dimethylphenoxy)-1-methyl-2-oxo-1,2-dihydropyridin-4-yl)-6-methyl-2-(4-(trifluoromethyl)phenyl)-1,6-dihydro-7H-pyrrolo[2,3-c] pyridin-7-one] | > 1000 nM | xx (Fold >50 and ≤200) | 50 to 200 nM | > 1 h
Cc1ccc(Cl)cc1-c1cc2c(-c3cc(=O)n(C)cc3Oc3c(C)cccc3C)cn(C)c(=O)c2[nH]1 [Example 20, 2-(5-chloro-2-methylphenyl)-4-(5-(2,6-dimethylphenoxy)-1-methyl-2-oxo-1,2-dihydropyridin-4-yl)-6-methyl-1,6-dihydro-7H-pyrrolo[2,3-c] pyridin-7-one] | > 1000 nM | x (Fold >2 and ≤50) | 200 to 1000 nM | > 1 h
Cc1cccc(C)c1Oc1cn(C)c(=O)cc1-c1cn(C)c(=O)c2[nH]c(-c3cc(C(F)(F)F)ccc3F)cc12 [Example 34, 4-(5-(2,6-dimethylphenoxy)-1-methyl-2-oxo-1,2-dihydropyridin-4-yl)-2-(2-fluoro-5-(trifluoromethyl)phenyl)-6-methyl-1,6-dihydro-7H-pyrrolo[2,3-c] pyridin-7-one] | > 1000 nM | xxx (Fold >200) | ≤ 50 nM | 
Cc1cc(-c2cc3c(-c4cc(=O)n(C)cc4C4CCCC4)cn(C)c(=O)c3[nH]2)cc(C)n1 [Example 54, 5-cyclopentyl-4-[2-(2,6-dimethylpyridin-4-yl)-6-methyl-7-oxo-1H-pyrrolo[2,3-c]pyridin-4-yl]-1-methylpyridin-2-one] | 50 to 500 nM | xx (Fold >50 and ≤200) | ≤ 50 nM | 
CC#Cc1cn(C)c(=O)cc1-c1cn(C)c(=O)c2[nH]c(-c3cc(C)nc(C)c3)cc12 [Example 58, 4-[2-(2,6-dimethylpyridin-4-yl)-6-methyl-7-oxo-1H-pyrrolo[2,3-c]pyridin-4-yl]-1-methyl-5-(prop-1-yn-1-yl)pyridin-2-one] | > 1000 nM | xxx (Fold >200) | ≤ 50 nM | 
